This assay has as its system NC/Nga mice. Description: DNCB-induced atopic dermatitis-like skin lesions. It counts as in vivo, mouse. An excerpt: Seven-week-old NC/Nga mice were purchased from the Shizuoka Laboratory Animal Center (Shizuoka, Japan) and allowed to adapt to the environment for a week prior to use. The procedures for the induction of atopic dermatitis-like symptoms in mice using 1-chloro-2,4-dinitro-benzene (DNCB) have been well described previously ([27]). Briefly, the dorsal hair of the mice was shaved 2 days before DNCB administration. For the induction of atopic dermatitis, 1% DNCB was applied to the dorsal skin of the mice twice weekly for 7 days and then 0.2% DNCB was applied thrice weekly for 21 days. The mice were divided into the following […] treatment groups (n = 10 per group): 0.3 and 3% Vp2N/day, 0.3 and 3% Vp8N/day, 0.1% dexamethasone/day, and vehicle only, dorsally administered from 9 to 13 weeks of age. As a negative control for atopic dermatitis, NC/Nga mice that were not treated with DNCB were maintained under pathogen-free conditions. Laboratory animal breeding management was based on the “Guide for the Care and Use of Laboratory Animals,” and all experiments were approved by the Institutional Animal Care and Use Committees of Gyeonggi Institute of Science & Technology.

The record followed here is publication PMC5904360, “Soluble N-Ethylmaleimide-Sensitive Factor Attachment Protein Receptor-Derived Peptides for Regulation of Mast Cell Degranulation” (Frontiers in Immunology, 2018).

As for “LQSEVEGVKNIMTQNVE [Vp8N, 17-mer peptide, N-terminal region of VAMP8 SNARE motif]”, where the note is “0.3 and 3% peptide/day dorsally for 4 weeks, n = 10 per group, versus DNCB/vehicle-treated group (Figure 5C)”, the epidermal thickness result is “significantly reduced”. For the same sequence, the “atopic dermatitis features (acanthosis, hypergranulosis, hyperkeratosis) in hematoxylin and eosin-stained sections” value (0.3 and 3% peptide/day dorsally, 9 to 13 weeks of age, n = 10 per group, compared with 0.1% dexamethasone/day group (Figure 5B)) is “clearly alleviated to a similar extent”. Also, the ear thickness entry (0.3 and 3% peptide/day or 0.1% dexamethasone/day for 4 weeks, n = 10 per group (Figure 5D)) is recorded as “reduced”. The “serum IgE levels” value (daily dorsal application for 4 weeks, n = 10 per group (Figure 5F)) is reported as “significantly reduced”.
